From patent publication US4797399A, “Piperazine compounds and antithrombotic pharmaceutical composition comprising the same” (Fujisawa Pharmaceutical Co., Ltd., priority 1986, dated 1989)
Where two headings read alike, the source gives them in different places.

Experiments:
[1] = test system: acetic acid-induced writhing; assay: Acetic acid-induced writhing syndrome; type: in vivo, Scl:ddy strain mice; settings: 32 mg/kg oral, 60 min before 0.6% acetic acid i.p., 3-13 min count; * P < 0.01
Procedure: Male Scl:ddy strain mice aged 6 weeks were used in groups of 10. The test compound was suspended in methylcellulose and administered orally. After 60 min., 20 ml/kg of 0.6% acetic acid solution was administered i.p. and writhing episodes between 3 and 13 min. after acetic acid injection were counted. The data was analyzed statistically by student's t-test.

carrageenin foot edema = assay: Carrageenin foot edema; type: in vivo, Sprague-Dawley rats; settings: 320 mg/kg oral, 60 min before phlogogen, edema at 3 hours; * P < 0.05
Procedure: Male Sprague-Dawley rats weighing about 180 g were used in groups of five. Paw edema was induced by subplantar injection of 1% carrageenin (0.1 ml/rat) into the right hind paw in carrageenin foot edema. The test compound was suspended in methylcellulose and administered orally 60 minutes before phlogogen. Paw volume was measured with plethysmometer (Ugo Basil Co., Ltd.) by water displacement immersing the paw to the lateral malleolus. The difference of paw volume before and 3 hours after the phlogogen was designated as edema volume. The data analyzed statistically by student's t-test.

[2] = test system: platelet aggregation (collagen); assay: Platelet aggregation ex vivo, collagen-induced, after oral administration to rats; type: in vivo, Sprague-Dawley rats; settings: 1 hour after dosing, collagen 5.0 μg/ml
Procedure: Male Sprague-Dawley rats weighing about 250 g were used after overnight fasting. One hour after oral administration of test compound or vehicle of test compound (control), blood was collected into a tube containing 0.1 vol. of 3.8% sodium citrate. To the 0.45 ml of blood, 0.05 ml of collagen (final concentration 5.0 μg/ml) was added and then incubated for 5 min. at 37° C. under shaking.
The reaction was terminated by addition of 1 ml of 10 mM phosphate buffered saline (pH 7.4) containing 11.5 mM EDTA and 1% formalin. The reaction mixture was centrifuged at 70×g for 5 min. and platelet count of upper phase was measured by Technicon Auto Analizer.
Platelet aggregation was calculated according to the following formula: [formula] A. Platelet count after addition of vehicle of collagen B. Platelet count after addition of collagen
Inhibition of the test compound was calculated according to the following formula; [formula] C. Platelet aggregation (%) of control D. Platelet aggregation (%) of Test compound

systemic anaphylaxis = assay: Systemic anaphylaxis (passive sensitization with rabbit anti-ovalbumin serum, ovalbumin aerosol); type: in vivo, Hartley guinea pigs; settings: 30 min before antigen aerosol
Procedure: Male Hartley guinea pigs (300-400 g, n=5) were passively sensitized with i.v. injection of rabbit anti-ovalbumin serum. 24 Hours later, test compound was administered orally. 30 Min. after administration of test compound, sensitized animals were placed for 2 min. in a chamber filled with antigen aerosol (ovalbumin) by a conventional nebulizer. Survived animals were regarded as being protected from systemic anaphylaxis.

[3] = test system: platelet aggregation (collagen); assay: Platelet aggregation in vitro, collagen-induced (rabbit platelet rich plasma); type: cell-based; settings: Oryctolagus cuniculus
Procedure: (§1) Platelet rich plasma (PRP) which contains 6-7×10^8 platelets/ml was prepared from rabbit blood. To the 200 μl of PRP, 5 μl of calcium chloride (1 mM) and 50 μl of 25 mM Tris-acetate solution (pH 7.4) containing 120 mM NaCl or test compound were added successively, and then stirred for 2 min. at 37° C. […] Aggregation was measured by using an aggregometer. (NKK HEMA-TRACER 1).

[4] = test system: platelet aggregation (ADP); assay: Platelet aggregation in vitro, ADP-induced (rabbit platelet rich plasma); type: cell-based; settings: Oryctolagus cuniculus
Procedure: as §1

SMILES	Inhibition (%) of acetic acid-induced writhing [1] [%]	Inhibition (%) of carrageenin foot edema (carrageenin foot edema) [%]	Inhibition (%) of platelet aggregation ex vivo ([2]; 10 mg/kg oral) [%]	Inhibition (%) of platelet aggregation ex vivo ([2]; 32 mg/kg oral) [%]	Inhibition (%) of platelet aggregation ex vivo ([2]; 100 mg/kg oral) [%]	Survival (%) (systemic anaphylaxis; 10 mg/kg oral)	Survival (%) (systemic anaphylaxis; 100 mg/kg oral)	IC50 ([3]; inducer collagen (2.5 μg/ml), rabbit PRP, pH 7.4, 37° C, read-out: ID50 Collagen (dose required to inhibit platelet aggregation by 50%)) [µM]	IC50 ([4]; inducer ADP (2.5 μM), rabbit PRP, pH 7.4, 37° C, read-out: ID50 ADP (dose required to inhibit platelet aggregation by 50%)) [µM]	IC50 ([3]; pH 7.4, read-out: ID50 Collagen (dose required to inhibit platelet aggregation by 50%)) [µM]	IC50 ([4]; pH 7.4, read-out: ID50 ADP (dose required to inhibit platelet aggregation by 50%)) [µM]
Cl.NN1CCN(C(=O)Cn2c(=O)sc3ccc(Cl)cc32)CC1 [Example 5, 5-chloro-3-[(4-amino-1-piperazinyl)carbonylmethyl]-2-benzothiazolinone hydrochloride]	32.8	40.0	2	67	100	20	100	14	14	–	–
CC(=O)Oc1ccccc1C(=O)O [Aspirin, reference compound]	–	–	–	–	–	–	–	–	–	31	3200
